Measurements: paper PMC9620171 (Journal of Medicinal Chemistry, 2022)
Where two headings read alike, the source gives them in different places.

Assays:
HSV [1] = details: lead optimization; ref 11 and data on file; cited from earlier work
[2] = lead optimization; ref 11 and data on file; cited from earlier work
[3] = tested on: liver, heart muscle, kidney, macrophages, monocytes, T lymphocytes, fibroblasts, and neuronal cells; assay: Cytotoxicity on a panel of different cell types; assay type: cell-based
other herpesviruses = details: cited from earlier work
HSV-1 [4] = assay: Murine lethal challenge assay, intranasal HSV-1 infection; assay type: in vivo, mice; details: using molar doses
[5] = Pharmacokinetics after oral administration, rat; details: in vivo, 1 mg/kg, elimination half-life in rodents
[6] = tested on: two human helicases, one nuclear and one located in the mitochondria; assay: Inhibition of human helicases; assay type: biochemical; details: one nuclear and one mitochondrial human helicase
HSV [7] = details: four times daily swabbing; cited from earlier work
[8] = Pharmacokinetics after oral administration, dog; details: in vivo, 1 mg/kg
HSV-2 [9] = assay: Murine lethal challenge assay, intranasal HSV-2 infection; assay type: in vivo, mice; details: using molar doses
HSV-1 [10] = details: oral, start 72 h postinfection; cited from earlier work
HSV-2 [11] = details: 10 and 30 mg/kg twice a day, start 72 h postinfection; cited from earlier work
HSV-1 [12] = details: cited from earlier work
[13] = tested on: bacterial reversion and mammalian cell chromosome aberration; assay: Genotoxicity, standard ICH battery; assay type: cell-based; details: in vitro; free base and mesylate monohydrate examined
[14] = tested on: acyclovir resistant, mucocutaneous HSV infection; details: preliminary data, cited from earlier work
HSV-1 [15] = details: cited from earlier work; for effectiveness on lesion score and virus shedding: wild-type HSV-1, postinfection day 1 to day 4
HSV [16] = details: rats; three daily oral doses, pritelivir 0.5 and 2 mg/kg, valacyclovir 45 and 135 mg/kg; cited from earlier work
HSV [17] = details: pritelivir-resistant, plaque-purified virus, in vitro; cited from earlier work
HSV-2 [18] = details: day 3 to day 7 postinfection, cited from earlier work
HSV-2 [19] = details: cited from earlier work; for recurrence rate per 10-day period: early treatment days 0–4, follow-up up to 85 days, control 1.0; for time to return to a disease score of zero: control 14 days
[20] = Routes of elimination of pritelivir in humans; assay type: in vivo; details: yields pyridinyl phenyl acetic acid and amino thiazole sulfonamide
HSV-1 [21] = details: 24 h after heat stress; two oral doses of 50 mg/kg; controls 1.4 × 10^6; cited from earlier work
[22] = Pharmacokinetics after oral administration, human; details: in vivo, 100 mg
[23] = compared with other salts and salt/hydrates; cited from earlier work
[24] = Physicochemical properties of pritelivir mesylate monohydrate; details: 50 for the classification system
[25] = after administration of its prodrug valacyclovir in experimental animals; cited from earlier work
[26] = cited from earlier work

## CNS(=O)(=O)c1sc(N(C)C(=O)Nc2ccc(-c3ccccc3)cc2)nc1C [Compound 3]
HSV [1]
  in vivo activity / efficacy: superior in vivo efficacy than valacyclovir

## Cc1nc(N(C)C(=O)Cc2ccc(-c3ccccc3)cc2)sc1S(N)(=O)=O [Compound 9]
HSV [1]
  in vivo activity / efficacy: high in vitro and in vivo activity
[2]
  solubility: solubility remained a challenging issue

## Cc1nc(N(C)C(=O)Cc2ccc(-n3cccn3)cc2)sc1S(N)(=O)=O [Compound 13]
[2]
  solubility: improved solubility

## Cc1nc(N(C)C(=O)Cc2ccc(-c3c(C)noc3C)cc2)sc1S(N)(=O)=O [Compound 14]
[2]
  solubility: improved solubility

## Cc1nc(N(C)C(=O)Cc2ccc(-c3cccnc3)cc2)sc1S(N)(=O)=O [Compound 15]
[2]
  solubility: less soluble

## Cc1nc(N(C)C(=O)Cc2ccc(-c3ccccn3)cc2)sc1S(N)(=O)=O [Compound 16, pritelivir]
[3]
  cytotoxicity: lack of cytotoxicity
Other herpesviruses
  activity against other herpesviruses: only weak (if any) activity
HSV [1]
  in vivo activity / efficacy: excellent in vivo activity
HSV-1 [4]
  potency factor vs ganciclovir: 8 fold
[5]
  half-life: ≥ 5 h
[6]
  inhibition of human helicases: Neither of these enzymes was inhibited
HSV [7]
  efficacy vs valacyclovir in viral shedding rate and days with lesions: superior efficacy vs valacyclovir
[8]
  half-life: ≥ 22 h
HSV-2 [9]
  potency factor vs ganciclovir: 3 fold
HSV-1 [10]
  b.i.d. dose at which 3-week mortality was already decreased: 0.3 mg/kg
HSV-2 [11]
  3-week mortality: no mortality
HSV-1 [12]; read-out: in vitro EC50, wild-type HSV-1, wild-type
  EC50: 0.03 µM
HSV-1 [12]; resistant strain vs wild-type
  higher in vitro ED50 of pritelivir-resistant HSV-1 strain: 27 fold
[13]
  genotoxic potential: nongenotoxic
[14]; of the 23 subjects treated
  subjects whose lesions improved but did not heal completely: 4 subjects
[14]
  tolerability: well tolerated without significant adverse effects
HSV-1 [15]; mutant alone, even at 60 mg/kg
  efficacy against HSV-1 mutant without wild-type mixture: practically ineffective
HSV-1 [15]; pritelivir-resistant HSV-1 strain, 60 mg/kg for 8 days
  outcome of high-dose extended treatment: prevented mortality and weight loss
HSV-1 [15]; pritelivir-resistant HSV-1 strain, oral 10 mg/kg, day 1 to day 4
  influence on lesion score and virus shedding: only marginal
HSV-1 [15]; oral 5 mg/kg
  effectiveness on lesion score and virus shedding: largely
HSV-1 [15]; oral 10 mg/kg
  effectiveness on lesion score and virus shedding: fully
HSV [16]
  efficacy compared with valacyclovir: superior efficacy
HSV [17]
  frequency of resistant HSV mutants: 0.5 to 4.5 × 10^–6
HSV-2 [18]; oral 15 or 60 mg/kg t.i.d.
  recurrence of lesion score after treatment: no such recurrence was observed
HSV-2 [19]; 20 mg/kg b.i.d.
  recurrence rate per 10-day period: 0.4
HSV-2 [19]; 30 mg/kg b.i.d.
  recurrence rate per 10-day period: 0.3
HSV-2 [19]; day 2 postinfection, vaginal swabs, 20 mg/kg b.i.d.
  decrease of viral shedding compared to controls: 3 orders of magnitude
HSV-2 [19]; days 7, 25 and 85 postinfection, vs valacyclovir and control groups
  viral load in sacral dorsal root ganglia: considerably lower
HSV-2 [19]; oral 20 mg/kg b.i.d., day 4 to day 14 postinfection
  time to return to a disease score of zero: 7 days
[20]
  share of elimination by nonenzymatic hydrolysis: more than 50%
HSV-1 [21]
  mean viral genome copy number in trigeminal ganglia: 2.4 × 10^2
[2]
  solubility: much better solubility
[22]
  half-life: 60 to 70 h

## CS(=O)(=O)O.Cc1nc(N(C)C(=O)Cc2ccc(-c3ccccn3)cc2)sc1S(N)(=O)=O.O [Pritelivir mesylate monohydrate]
[23]
  stability under forced degradation conditions: highest stability
[24]
  BCS class: BCS class 2

## Nc1nc2c(ncn2COCCO)c(=O)[nH]1 [acyclovir]
[25]
  acyclovir bioavailability: 58–84%

## Nc1nc2c(ncn2CCC(CO)CO)c(=O)[nH]1 [penciclovir]
[26]; after dosing with the prodrug famciclovir
  half-life of penciclovir: 2.0 to 2.5 h
[26]; human, penciclovir via famciclovir
  bioavailability: 60–77%

## CC(C)[C@H](N)C(=O)OCCOCn1cnc2c(=O)nc(N)[nH]c21 [valacyclovir, reference compound]
HSV-2 [18]; oral 60 mg/kg t.i.d. (lower dose level)
  mortality: 100%
HSV-2 [19]; 100 mg/kg t.i.d. or 150 mg/kg b.i.d.
  recurrence rate per 10-day period: 0.9
HSV-2 [19]; 150 mg/kg b.i.d., delayed treatment
  time to return to a disease score of zero: 12 days
HSV-2 [19]; valacyclovir 150 mg/kg b.i.d., vaginal swabs
  effect on viral shedding: no discernible effect
